Assay results published in patent publication US20210308101A1, “METHODS OF TREATING FIBROMYALGIA” (Aptinyx Inc., priority 2019, published 2021).

Test system: subjects with fibromyalgia
Test: Brief Pain Inventory - Short Form (BPI-SF)
Type: in vivo, human
Details: not statistically significant
Text: As used herein, “Brief Pain Inventory” (BPI)—Short Form is a brief, simple patient-completed numeric rating scale that assesses the severity of pain (Severity scale), its impact on daily functioning (Interference scale), and other aspects of pain (e.g., location of pain, relief from medications). A short form version of the BPI, including the 4-item pain Severity scale (Worst Pain, Least Pain, Average Pain, and Pain Now) and the 7-item pain Interference scale (General Activity, Mood, Walking Ability, Normal Work, Relations with Other People, Sleep, Enjoyment of Life) were the main BPI-Short Form analyses. […] If at least 3 of the 4 Severity items have a reported score, then the Pain Severity Index was the calculated mean. Otherwise, the Pain Severity Index was set to missing. […] Otherwise, the Pain Interference Index was set to missing. […] The Pain Severity Index and the Pain Interference Index were referred to as composite scores.
There may be dates in which worst pain in the last 24 hours has scores that are less than the least pain in the last 24 hours and/or right now pain scores. Also, the least pain in the last 24 hours scores may be greater than the worst pain in the last 24 hours and/or right now pain scores. This may be due to the collection of the data that cannot be changed due to the subject's confusion of the three scores. The Pain Severity Index score equally distributes all these three scores and the average pain score. Therefore, the Pain Severity Index score is not impacted by any of these scores being mixed up. As a result, the scores were analyzed based on the values collected.
The 2 composite scores took on values ranging from 0 to 10 and were rounded off by one number after the decimal point. A total pain score for BPI-Short Form was not calculated. The BPI-Short Form assessment was collected and analyzed at visits Screening, Day 1, Week 2, Week 4, Week 6, and Follow-up (Week 7). The observed composite scores, changes from baseline, and changes from treatment periods were summarized using descriptive statistics. Additionally, the treatment group comparisons were analyzed using the paired t-test and nonparametric Wilcoxon signed-rank test. All BPI-Short Form data collected and the calculated composite scores at each visit were presented in a subject listing. […] Have you had pain other than these everyday kinds of pain today?” is a categorical response (yes/no). […] This question was included in the descriptive statistics, but was not analyzed using any paired t-test and nonparametric Wilcoxon signed-rank test comparisons. • BPI-Short Form question 2, “On the diagram, shade in the areas where you feel pain. […]

[1] = Week 2 (placebo) to Week 4 (NYX-2925 20 mg)
[2] = Week 2 (placebo) to Week 6 (NYX-2925 200 mg)

## CC(C)C(=O)N1CCC[C@]12CN([C@H](C(N)=O)[C@@H](C)O)C2=O [NYX-2925, (2S, 3R)-3-hydroxy-2-((R)-5-isobutyryl-1-oxo-2,5-diazaspiro[3.4]octan-2-yl)butanamide]
[1]
  BPI-SF Pain Interference Index score, mean change: −0.04
  BPI-SF Pain Severity Index score, mean change: −0.22
[2]
  BPI-SF Pain Interference Index score, mean change: −0.66
  BPI-SF Pain Severity Index score, mean change: −0.27
